{
  "source": "patent US10577322B2",
  "about": "“5-methoxytryptophan and its derivatives and uses thereof” (National Health Research Institutes, priority 2015, dated 2020)",
  "key": {"COX-2": {"tested_on": "COX-2", "experiment": "LPS-induced COX-2 expression in peritoneal macrophages (western blot)", "type": "cell-based", "conditions": "primary mouse peritoneal macrophages, LPS 8 h", "protocol": "(§1) For peritoneal macrophage isolation, C57BL/6J mice were injected intraperitoneally with 2 ml of 4% thioglycollate. Four days after injection, the peritoneal cavity was washed with 5 ml of ice-cold RPMI1640 medium, and cells from the peritoneal exudates were collected by centrifugation, and suspended in RPMI1640 medium, then seeded on 15-cm dishes and allowed to adhere for 4 h. Floating cells were washed out, and adherent cells were used as peritoneal macrophages in the experiments. The cells were incubated with or without LPS (100 ng/ml) for the indicated time before each experiment, as in the protocol for the RAW264.7 cells.\nFurthermore, peritoneal macrophages were stimulated with LPS with or without 5-MTP. After 8 h, COX-2 protein expression was determined by western blot. The experiments were repeated 3 times with similar results."}, "[1]": {"tested_on": "proinflammatory cytokines", "experiment": "LPS-induced proinflammatory cytokines in peritoneal macrophages (ELISA)", "type": "cell-based, mouse", "conditions": "LPS 24 h", "protocol": "as §1\nCytokine levels in the culture supernatants and serum were determined in microtiter plates (96-well) by a specific sandwich ELISA (Biosource) as previously described (Wu, J. Y. & Kuo, C. C. Pivotal role of ADP-ribosylation factor 6 in Toll-like receptor 9-mediated immune signaling. J Biol Chem 287, 4323-4334 (2012)) (Lee, G. L., et al. TLR 2 induces vascular smooth muscle cell migration through cAMP response element-binding protein-mediated interleukin-6 production. Arterioscler Thromb Vasc Biol 32, 2751-2760 (2012); hereinafter, Lee, G. L., et al.).\nFurthermore, peritoneal macrophages were stimulated with LPS with or without 5-MTP. After 24 h, proinflammatory cytokines were measured by ELISA."}, "TNF-α": {"tested_on": "TNF-α", "experiment": "LPS-induced TNF-α production in RAW264.7 cells", "type": "cell-based, mouse", "conditions": "data not shown"}, "BALF total cell number": {"tested_on": "BALF total cell number", "experiment": "Cell number in bronchoalveolar lavage fluid (trypan blue exclusion)", "type": "in vivo, mice", "conditions": "24 h after LPS", "protocol": "Furthermore, bronchoalveolar lavage fluid (BALF) was isolated from mice treated with LPS with or without various concentrations of 5-MTP for 24 h. Cell number in BALF was determined by trypan blue exclusion assay."}, "peritoneal macrophages": {"tested_on": "peritoneal macrophages", "experiment": "Ex vivo cytokine production of peritoneal macrophages from endotoxemic mice", "type": "in vivo", "conditions": "macrophages isolated 8 h after LPS, 5-MTP 23.4 mg/kg, cultured 24 h", "protocol": "To further confirm that 5-MTP deactivates peritoneal macrophages during endotoxemia, we evaluated the effect of 5-MTP on IL-1β and IL-6 production ex vivo in peritoneal macrophages isolated from untreated or 5-MTP-treated endotoxemic mice. Peritoneal macrophages were isolated 8 h after LPS injection with saline or 5-MTP (23.4 mg/kg) and cultured with medium alone. After 24 h, proinflammatory cytokines were measured by ELISA (n=3)."}, "[2]": {"experiment": "Serum 5-MTP level in mice after 5-MTP administration", "type": "in vivo", "conditions": "5-MTP 23.4 mg/kg", "protocol": "To ensure that 5-MTP administration increases serum 5-MTP, we analyzed 5-MTP level at 24 h and 72 h after 5-MTP infusion. Serum 5-MTP concentrations in mice treated with saline or LPS with or without 5-MTP (23.4 mg/kg) at 24 h and 72 h. The error bars denote mean±SD (n=3)."}, "caspase-3": {"tested_on": "caspase-3", "experiment": "Caspase-3 activity in splenocytes (fluorogenic substrate)", "type": "in vivo, mice", "conditions": "5-MTP 100 mg/kg, 16 h", "protocol": "Caspase-3 activity was determined by the cleavage of the fluorometric substrate z-DEVD-AMC (Upstate Biotechnology) as previously described (Kuo, C. C., Liang, C. M., Lai, C. Y. & Liang, S. M. Involvement of heat shock protein(Hsp)90 beta but not Hsp90 alpha in antiapoptotic effect of CpG-B oligodeoxynucleotide. J Immunol 178, 6100-6108 (2007)).\nIn addition, caspase-3 activity in splenocytes of mice treated with saline, LPS or LPS plus 5-MTP (100 mg/kg) for 16 h was measured by fluorogenic substrate as described above. The results are shown in FIG. 9B, in which the error bare denotes mean±SD (n=6 mice/group)."}, "p38 MAPK": {"tested_on": "p38 MAPK", "experiment": "LPS-induced p38 MAPK phosphorylation in RAW264.7 cells (immunoblot)", "type": "cell-based, mouse", "conditions": "LPS 4 h", "protocol": "Cellular protein were resolved by 5% to 20% SDS-PAGE and transferred to nitrocellulose membranes and blotted with specific antibodies as previously described (Lee, G. L., et al.).\nAfter pretreating RAW264.7 cells with different concentrations of 5-MTP for 30 min, cells were stimulated with LPS for 4 h. Cell lysates were immunoblotted with antibodies for p38, phospho-p38 (p-p38), ERK½, phospho-ERK½ (p-ERK½) or β-actin. […] Activation of p38 MAPK in macrophages is required for TLR-induced NF-κB activation, which is one of the key factors affecting TLR-induced cytokine production. Thus, we evaluated the effect of 5-MTP on LPS-induced. NF-κB activation."}, "NF-κB p65": {"tested_on": "NF-κB p65", "experiment": "Phospho-p65 level in lung tissues (ELISA kit)", "type": "in vivo, mice", "conditions": "4 and 8 h after LPS, 5-MTP 23.4 mg/kg", "protocol": "Since NF-κB activation plays a critical role in the initiation and progression of systemic inflammation and septic pathology, the effect of 5-MTP on NF-κB activation in lung tissue was evaluated. Phospho-p65 level in lung tissues was determined by an ELISA kit at 4 and 8 h after LPS infusion with or without 5-MTP (23.4 mg/kg) (n=6 mice/group)."}, "p300 HAT [3]": {"tested_on": "p300 HAT", "experiment": "p300 HAT activity in peritoneal macrophages", "type": "cell-based, mouse", "conditions": "LPS, 5-MTP 50 μM", "protocol": "p300 HAT activity in peritoneal macrophages treated with LPS in the presence or absence of 5-MTP (50 μM) for the indicated time was measured with an p300 HAT activity assay kit."}, "p300 HAT [4]": {"tested_on": "p300 HAT", "experiment": "p300 HAT activity in lung tissues of mice", "type": "in vivo", "conditions": "8-24 h after LPS, 5-MTP 23.4 mg/kg", "protocol": "In addition, p300 HAT activity in lung tissues of mice (n=6 mice/group) at 8-24 h after LPS infusion with or without 5-MTP(23.4 mg/kg) was determined by an assay kit."}},
  "data": [
    {"smiles": "COc1ccc2[nH]cc(C[C@H](N)C(=O)O)c2c1", "note": "[5-MTP, 5-methoxytryptophan]", "values": [
      {"measurement": "LPS-induced COX-2 expression", "setting": "COX-2", "result": "inhibited"},
      {"measurement": "IL-1β production", "setting": "[1]", "result": "inhibited"},
      {"measurement": "IL-6 production", "setting": "[1]", "result": "inhibited"},
      {"measurement": "TNF-α production", "setting": "[1]", "result": "inhibited"},
      {"measurement": "TNF-α production", "setting": "TNF-α", "result": "inhibited"},
      {"measurement": "total cell number in BALF", "setting": "BALF total cell number", "result": "reduced by 5-MTP in a dose-dependent manner"},
      {"measurement": "ex vivo IL-1β production", "setting": "peritoneal macrophages", "result": "significantly suppressed"},
      {"measurement": "ex vivo IL-6 production", "setting": "peritoneal macrophages", "result": "significantly suppressed"},
      {"measurement": "serum 5-MTP level at 24 h after administration", "setting": "[2]", "result": "several-fold over the basal level"},
      {"measurement": "serum 5-MTP level at 72 h", "setting": "[2]", "result": "returned to basal level"},
      {"measurement": "LPS-induced caspase-3 cleavage in spleen cells", "setting": "caspase-3", "result": "prevented"},
      {"measurement": "phosphorylation of p38 MAPK", "setting": "p38 MAPK", "result": "dose-dependently blocked"},
      {"measurement": "phosphorylation level of NF-κB p65 in lung tissues", "setting": "NF-κB p65", "result": "reduced by 5-MTP"},
      {"measurement": "p300 HAT activation", "setting": "p300 HAT [3]", "result": "significantly blocked p300 HAT activation up to 24 h"},
      {"measurement": "p300 HAT activity in lung tissues", "setting": "p300 HAT [4]", "result": "suppressed by 5-MTP"}
    ]}
  ]
}
